Patent US20190315814A1, “LANTIBIOTIC VARIANTS AND USES THEREOF” (priority 2016, published 2019)
≈ marks a conversion by molar mass, not a printed value. Read-outs that look alike come from different tables or passages of the source.

How the values were obtained:
[1] = system: VRE Enterococcus faecalis; details: VRE
[2] = system: Clostridium scindens (ATCC 35704)
in vitro = details: simulated gi fluid
Method: Assay incubation conditions included […] simulated gastric fluid (SGF, USP 39 Test Solution; 2 g/L NaCl, 7 mL/L glacial HCl, pH 1.4) containing 1.75 mg/mL Pepsin (3200-4500 U/mg) mixed with 7.5 μL of 10 mg/mL variant (or positive control, NH2-Met-Arg-Phe-Ala-OH, MRFA, CAS#67368-29-0) for a final concentration of 300 μg/ml variant in a microfuge tube. Samples were incubated at 37° C. and analyzed using HPLC or LC-MS for loss of substrate. The percent remaining, elimination rate constant (Ke), and in vitro protein half-lives were calculated. A control of SGF without enzyme was also run and analyzed in the same manner for each variant.

[3] = system: Peptostreptococcus anaerobius (ATCC 27337)
[4] = system: Lactobacillus acidophilus (CCUG 4356)
[5] = system: Eggerthella lenta (ATCC 27337)
[6] = simulated gi fluid
[7] = system: Clostridium difficile UNT103-1; test: Non-cannulated Syrian hamster C. difficile infection model, oral gavage; type: in vivo, Golden Syrian hamsters; details: for Percent Survival at Day-22: oral gavage TID Days 2-6, vancomycin 20 mg/kg once a day; for Toxin A level at Day-22 / Mean LOG10 CFU/mL of feces homogenates (cecal spore counts) at Day-22 / Toxin B level at Day-22: oral gavage; for Toxin A level at Day-22: first value of A/B cell; for Toxin A level at Day-22 / Toxin B level at Day-22: limit of detection 0.8; for Mean LOG10 CFU/mL of feces homogenates (cecal spore counts) at Day-22: limit of detection 2.40; for Toxin B level at Day-22: second value of A/B cell
Method: Following the recovery phase, male Golden Syrian hamsters were inoculated with Clostridium difficile UNT103-1 (VA11, non epidemic (cdtB-, REA group J) Curtis Donskey, Cleveland VA Hospital, Cleveland, Ohio). On Day 1, at 24 hrs after infection, all animals received a single subcutaneous injection of clindamycin (10 mg/kg). Test article formulations were administered three times per day (TID), starting on Day 2 at 18 hours after Clindamycin injection, for 5 consecutive days (Days 2 through 6), and followed until Day 22 to assess recurrence. Vancomycin (positive control) was administered once a day at 20 mg/kg on Days 2 through 6. Cecal spore counts and Toxins A and B were determined as described above

[8] = FaSSIF + 1% pancreatin + 3 μg/ml trypsin + 3 μg/ml chymotrypsin half-life

| Structure (SMILES) | MIC VRE ATCC 51575 [1] [µg/mL] | MIC VRE CCUG 47775 [1] [µg/mL] | MIC C. scindens [2] [µg/mL] | half-life (in vitro) [h] | MIC VRE ATCC 700221 (VRE Enterococcus faecium) [µg/mL] | MIC P. anaerobius [3] [µg/mL] | MIC L. acidophilus [4] [µg/mL] | MIC E. lenta [5] [µg/mL] | half-life [6, 8] [h] | half-life ([6]; FaSSIF only half-life) [h] | MIC to H. Pylori without EDTA (Heliobacter pylori) [µg/mL] | MIC to H. Pylori with 0.05M EDTA (Heliobacter pylori) [µg/mL] | Percent Survival at Day-22 [7] [%] | Toxin A level at Day-22 [7] [ng/mL] | Mean LOG10 CFU/mL of feces homogenates (cecal spore counts) at Day-22 [7] [LOG10 CFU/mL] | Toxin B level at Day-22 [7] [ng/mL] |
| --- | --- | --- | --- | --- | --- | --- | --- | --- | --- | --- | --- | --- | --- | --- | --- | --- |
| C=C1NC(=O)[C@H](Cc2c[nH]c3ccccc23)NC(=O)[C@H](NC(=O)[C@H](CCCCN)NC(=O)[C@@H](N)[C@@H](C)CC)CSC[C@@H](C(=O)N[C@H]2C(=O)N3CCC[C@H]3C(=O)NCC(=O)N[C@H](C(=O)N[C@@H](C)C(=O)N[C@@H](C)C(=O)NC(=CC)C(=O)NCC(=O)N[C@@H]3CSC[C@@H]4NC(=O)[C@H](Cc5ccc(O)cc5)NC(=O)[C@@H](CS/C=C\NC4=O)NC(=O)[C@H](CC(N)=O)NC(=O)[C@H](Cc4ccccc4)NC3=O)CS[C@H]2C)NC(=O)[C@H](CC(C)C)NC1=O [F1I R13A] | 16 (≈ 7.46 µM) | 16 (≈ 7.46 µM) | 4 (≈ 1.86 µM) | > 24 | 8 (≈ 3.73 µM) | 1 (≈ 0.466 µM) | 0.5 (≈ 0.233 µM) | 2 (≈ 0.932 µM) | > 12 | > 12 | 8 (≈ 3.73 µM) | 8 | 50 | 147 | 4.67 | 205.5 |
| C=C1NC(=O)[C@H](Cc2c[nH]c3ccccc23)NC(=O)[C@H](NC(=O)[C@H](CCCCN)NC(=O)[C@@H](N)[C@@H](C)CC)CSC[C@@H](C(=O)N[C@H]2C(=O)N3CCC[C@H]3C(=O)NCC(=O)N[C@H](C(=O)N[C@@H](C)C(=O)N[C@@H](CC(=O)O)C(=O)NC(=CC)C(=O)NCC(=O)N[C@@H]3CSC[C@@H]4NC(=O)[C@H](Cc5ccc(O)cc5)NC(=O)[C@@H](CS/C=C\NC4=O)NC(=O)[C@H](CC(N)=O)NC(=O)[C@H](Cc4ccccc4)NC3=O)CS[C@H]2C)NC(=O)[C@H](CC(C)C)NC1=O [F1I R13D] | 32 (≈ 14.6 µM) | 32 (≈ 14.6 µM) | 8 (≈ 3.65 µM) | > 24 | 32 (≈ 14.6 µM) | 1 (≈ 0.457 µM) | 2 (≈ 0.913 µM) | 2 (≈ 0.913 µM) | > 12 | > 12 | 8 (≈ 3.65 µM) | 8 | 50 | 648.5 | 4.8 | 216.6 |
| C=C1NC(=O)[C@H](Cc2c[nH]c3ccccc23)NC(=O)[C@H](NC(=O)[C@H](CCCCN)NC(=O)[C@@H](N)[C@@H](C)CC)CSC[C@@H](C(=O)N[C@H]2C(=O)N3CCC[C@H]3C(=O)NCC(=O)N[C@H](C(=O)N[C@@H](C)C(=O)N[C@@H](CC(N)=O)C(=O)NC(=CC)C(=O)NCC(=O)N[C@@H]3CSC[C@@H]4NC(=O)[C@H](Cc5ccc(O)cc5)NC(=O)[C@@H](CS/C=C\NC4=O)NC(=O)[C@H](CC(N)=O)NC(=O)[C@H](Cc4ccccc4)NC3=O)CS[C@H]2C)NC(=O)[C@H](CC(C)C)NC1=O [F1I R13N] | 16 (≈ 7.31 µM) | 16 (≈ 7.31 µM) | 2 (≈ 0.914 µM) | > 24 | 32 (≈ 14.6 µM) | 0.25 (≈ 0.114 µM) | 0.5 (≈ 0.228 µM) | 0.5 (≈ 0.228 µM) | > 12 | > 12 | 8 (≈ 3.66 µM) | 8 | 66 | 138.1 | 3.64 | 120.2 |
| C=C1NC(=O)[C@H](Cc2c[nH]c3ccccc23)NC(=O)[C@H](NC(=O)[C@H](CCCCN)NC(=O)[C@@H](N)CC(C)C)CSC[C@@H](C(=O)N[C@H]2C(=O)N3CCC[C@H]3C(=O)NCC(=O)N[C@H](C(=O)N[C@@H](C)C(=O)N[C@@H](C)C(=O)NC(=CC)C(=O)NCC(=O)N[C@@H]3CSC[C@@H]4NC(=O)[C@H](Cc5ccc(O)cc5)NC(=O)[C@@H](CS/C=C\NC4=O)NC(=O)[C@H](CC(N)=O)NC(=O)[C@H](Cc4ccccc4)NC3=O)CS[C@H]2C)NC(=O)[C@H](CC(C)C)NC1=O [F1L R13A] | 32 (≈ 14.9 µM) | 16 (≈ 7.46 µM) | 4 (≈ 1.86 µM) | > 24 | 16 (≈ 7.46 µM) | 0.5 (≈ 0.233 µM) | 0.5 (≈ 0.233 µM) | 0.5 (≈ 0.233 µM) | > 12 | > 12 | 8 (≈ 3.73 µM) | 8 | 0 | 4532.5 | 7.28 | 1795.5 |
| C=C1NC(=O)[C@H](Cc2c[nH]c3ccccc23)NC(=O)[C@H](NC(=O)[C@H](CCCCN)NC(=O)[C@@H](N)CC(C)C)CSC[C@@H](C(=O)N[C@H]2C(=O)N3CCC[C@H]3C(=O)NCC(=O)N[C@H](C(=O)N[C@@H](C)C(=O)N[C@@H](CC(=O)O)C(=O)NC(=CC)C(=O)NCC(=O)N[C@@H]3CSC[C@@H]4NC(=O)[C@H](Cc5ccc(O)cc5)NC(=O)[C@@H](CS/C=C\NC4=O)NC(=O)[C@H](CC(N)=O)NC(=O)[C@H](Cc4ccccc4)NC3=O)CS[C@H]2C)NC(=O)[C@H](CC(C)C)NC1=O [F1L R13D] | 64 (≈ 29.2 µM) | 32 (≈ 14.6 µM) | 8 (≈ 3.65 µM) | > 24 | 32 (≈ 14.6 µM) | 2 (≈ 0.913 µM) | 8 (≈ 3.65 µM) | 1 (≈ 0.457 µM) | > 12 | > 12 | 8 (≈ 3.65 µM) | 4 |  |  |  |  |
